# Results as given in patent US20250359576A1, “THEANINE-CONTAINING COMPOSITION” (TAIYO KAGAKU Co., Ltd., priority 2024, published 2025).
# Assays:
# panelists [1] = test: Test Example 4: three-point discrimination sensory evaluation of organic nitrogen compound alone without theanine; type: in vivo; conditions: compound alone in deionized water without theanine; 5 ppm test solution; eight panelists; binomial test, p<0.10
# Procedure: Organic nitrogen compound B was added to deionized water (i.e. not containing theanine) to prepare solutions containing 0 (control), 5, 50, and 100 ppm of organic nitrogen compound B.
# In other words, […] of organic nitrogen compound B was dissolved in 1000 mL of deionized water (control) to make a 100 ppm solution. 150 mL of deionized water was added to 150 mL of the 100 ppm organic nitrogen compound B solution to make a 50 ppm organic nitrogen compound B solution.
# 20 mL of the 50 ppm organic nitrogen compound B solution was mixed with 180 mL of deionized water to make a 5 ppm organic nitrogen compound B solution.
# A three-point discrimination sensory evaluation was conducted by eight panelists. Bitterness was used as the evaluation category. […] The panelists were asked to select solution(s) that they felt was (were) bitter. Analysis was performed using a binomial test. In the statistical analysis, a significance level of 10% (p<0.10) was used as the threshold for statistical significance.
# panelists [2] = test: Test Example 3: sensory evaluation of unpleasant taste (off-flavor) at high concentrations, upper limit; type: in vivo; conditions: six panelists
# Procedure: Solutions containing theanine (Taiyo Kagaku Co., Ltd.: Suntheanine (registered trademark) U001) were prepared to contain 0 (control), 100, 500, 1000, 5000, and 10000 ppm of organic nitrogen compound A or C.
# More specifically, 1996 mL of deionized water was added to 4 g of theanine, to prepare the theanine control solution (2 mg/mL theanine solution). 10000 ppm organic nitrogen compound solutions were prepared by adding […] of theanine control solution to 10 g of each organic nitrogen compound A and C.
# 150 mL of theanine control solution was added to 150 mL of each of the 10000 ppm organic nitrogen compound solutions to prepare 5000 ppm organic nitrogen compound solutions.
# 180 mL of theanine control solution was added to 20 mL of each of 10000 ppm organic nitrogen compound solutions to prepare 1000 ppm organic nitrogen compound solutions.
# 180 mL of theanine control solution was added to 20 mL of each of the 5000 ppm organic nitrogen compound solutions to prepare 500 ppm organic nitrogen compound solutions.
# 180 mL of theanine control solution was added to 20 mL of each of the 1000 ppm organic nitrogen compound solutions to prepare 100 ppm organic nitrogen compound solutions.
# Similar solutions were also prepared for organic nitrogen compound C.
# A sensory (taste) evaluation was conducted by six panelists. The evaluation category was unpleasant taste, which was considered to be an off-flavor.
SMILES,"bitterness, three-point discrimination vs deionized water (panelists [1])",panelists who noticed an unpleasant taste (panelists [2]; 100-500 ppm in 2 mg/mL theanine solution),panelists who noticed an unpleasant taste (panelists [2]; 1000-5000 ppm in 2 mg/mL theanine solution),panelists who noticed an unpleasant taste (panelists [2]; 10000 ppm in 2 mg/mL theanine solution)
"CCNC=O [organic nitrogen compound B, ethylformamide]",no significant difference,,,
"CC(N)=O [organic nitrogen compound C, acetamide]",,one of six panelists,two of six panelists,all panelists
